Data set [1] has as its target T1, MAO-A (Homo sapiens, UniProt P21397).
T1 construct: purchased BD Biosciences (San Jose, CA) or Corning Discovery Labware (Woburn, MA)
T1 sequence (P21397 1-527): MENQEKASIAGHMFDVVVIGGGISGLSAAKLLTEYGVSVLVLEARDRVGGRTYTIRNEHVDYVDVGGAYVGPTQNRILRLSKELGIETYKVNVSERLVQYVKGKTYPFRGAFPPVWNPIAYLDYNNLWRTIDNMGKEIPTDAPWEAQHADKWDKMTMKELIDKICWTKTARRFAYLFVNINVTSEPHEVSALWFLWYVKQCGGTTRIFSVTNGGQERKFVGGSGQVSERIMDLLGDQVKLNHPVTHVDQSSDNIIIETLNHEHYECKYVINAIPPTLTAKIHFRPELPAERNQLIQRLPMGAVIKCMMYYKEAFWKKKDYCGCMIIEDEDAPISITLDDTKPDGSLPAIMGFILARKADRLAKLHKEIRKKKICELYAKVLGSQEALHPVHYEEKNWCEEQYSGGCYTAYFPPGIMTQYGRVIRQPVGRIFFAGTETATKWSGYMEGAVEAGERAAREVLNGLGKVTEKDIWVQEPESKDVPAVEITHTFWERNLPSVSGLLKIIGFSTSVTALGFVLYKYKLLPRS
Kind of data set: MAO-A inhibition, kynuramine to 4-hydroxyquinoline, HPLC-fluorescence. Type of data set: biochemical. The conditions noted are these: for inhibition of MAO-A activity in screening: highest expected luminal concentration: curcumin 140, guaiacol 435, isoeugenol 110, pterostilbene 270, resveratrol 94, zingerone 51 µM, p < 0.05 vs control; for IC50 / MAO-A Hill coefficient / MAO-A inhibition (Figure 6): kynuramine 10 µM, 15 min; for IC50 / MAO-A Hill coefficient: MAO-A 0.01 mg/mL; for MAO-A inhibition (Figure 6): 15 µM test compound (clorgyline 1 µM, selegiline 0.5 µM); for Selectivity Index: ratio of MAO-B IC50/MAO-A IC50.

Data set [2] deals with T2, MAO-B (Homo sapiens, UniProt P27338).
T2 construct: purchased BD Biosciences (San Jose, CA) or Corning Discovery Labware (Woburn, MA)
T2 sequence (P27338 1-520): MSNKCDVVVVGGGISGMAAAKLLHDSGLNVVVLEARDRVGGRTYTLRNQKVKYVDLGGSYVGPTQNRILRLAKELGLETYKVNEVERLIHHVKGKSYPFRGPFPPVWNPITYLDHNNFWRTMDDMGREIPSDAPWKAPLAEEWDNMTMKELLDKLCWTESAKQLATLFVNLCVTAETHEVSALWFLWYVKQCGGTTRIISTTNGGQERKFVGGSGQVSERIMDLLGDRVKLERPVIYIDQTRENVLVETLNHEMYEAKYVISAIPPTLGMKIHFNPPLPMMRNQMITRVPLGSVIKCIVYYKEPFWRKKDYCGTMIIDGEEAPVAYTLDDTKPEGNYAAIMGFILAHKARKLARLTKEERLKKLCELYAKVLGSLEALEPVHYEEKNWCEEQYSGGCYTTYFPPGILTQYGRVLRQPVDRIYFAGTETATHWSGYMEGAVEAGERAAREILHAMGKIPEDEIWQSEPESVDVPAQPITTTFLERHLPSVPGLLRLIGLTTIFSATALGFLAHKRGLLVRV
The data set can be described thus: MAO-B inhibition, kynuramine to 4-hydroxyquinoline, HPLC-fluorescence. Type of data set: biochemical.

On the set-up of data set [3]: method as in earlier work. To be noted: cited from earlier work.
Data set [4] deals with MAO-A. The conditions noted are these: cited from earlier work.
The test system of data set [5] is MAO-A in mouse brain. To be noted: after p.o. administration; cited from earlier work.
Data set [6] concerns MAO-B in mouse brain. The conditions noted are these: after p.o. administration; cited from earlier work.
In data set [7] the test system is MAO-B. The conditions noted are these: cited from earlier work.
The target of data set [8] is MAO-B in rat brain. Also noted: method as in PMID 15120460. To be noted: cited from earlier work.
In data set [9] the target is MAO-A in rat brain. To be noted: cited from earlier work.
Data set [10] addresses T1, MAO-A. The data set can be described thus: Kynuramine oxidative deamination kinetics (saturation, optimization) with MAO-A. Type of data set: biochemical. The conditions noted are these: mean ± SEM. As to the method:
(§1) The optimized incubation time and human recombinant MAO concentration were selected in the linear range from the time-dependent and MAO concentration-dependent studies (Supplemental Data). Briefly, samples were prepared in potassium phosphate buffer (100 mM, pH 7.4) with a final concentration of MAO in the reaction solution of 0.01 mg/mL, incubated at 37°C for 15 min. Saturation of kynuramine metabolism with MAO-A/B was carried out at concentrations of 2, 5, 10, 25, 50, 100, 250, 500 μM. The enzymatic reactions (200μL) were stopped by 2 N NaOH (75 μL) followed with 70% perchloric acid (25 μL). The samples were vortexed and centrifuged for 5 min at 10,000×g. The supernatant was analyzed by HPLC as described above.
(§2) GraphPad Prism 5 was applied to fit a Michaelis-Menten model to the data to obtain the Km values in the saturation experiments. In the screening experiments, significant differences between control and treated group were determined by a one-way ANOVA followed by Dunnett's posttest (p < 0.05). […] The maximum single doses are from published sources. The relevant GI concentration is the lesser of either solubility or the concentration after a single dose.
(§3) Kynuramine (2 to 500 μM) was incubated in 200 μL potassium phosphate buffer (100 mM, pH 7.4) for 15 min with MAO-A or MAO-B (0.01 mg/mL). Michaelis-Menten model was used to fit the data by GraphPad Prism 5. The experiments were conducted 3 times in triplicate. Single representative experiments are shown. […]
(§4) Table S7. Sample Processing Stability for 4-Hydroxyquinoline […]
(§5) B. Optimization of Enzyme Incubations […]
(§6) Kynuramine (10 µM) was incubated with MAO-A (0.01 mg/mL) in 200 µL potassium phosphate buffer (100 mM, pH 7.4) for 10, 20, 30, 40, and 60 min. The formation of 4-hydroxyquinoline was analyzed after the enzymatic reaction. […]

The target of data set [11] is T2, MAO-B. Kind of data set: Kynuramine oxidative deamination kinetics (saturation, optimization) with MAO-B. Type of data set: biochemical. The conditions noted are these: mean ± SEM. As to the method: as §1, §2, §3, §4, §5, §6
For data set [12], the system named is human MAO-A. The arrangement: method as in PMID 15095350. The conditions noted are these: cited from earlier work.
Data set [13] concerns human MAO-B. The arrangement: method as in PMID 15095350. To be noted: cited from earlier work.
The target of data set [14] is T1, MAO-A. The data set can be described thus: Inhibition mechanism studies (competition, time dependence) with MAO-A. Type of data set: biochemical. The conditions noted are these: 1 μM, preincubation 0-60 min, then kynuramine 20 μM.
[15] abbreviates: highest expected luminal concentration: curcumin 140, guaiacol 435, isoeugenol 110, pterostilbene 270, resveratrol 94, zingerone 51 µM, p < 0.05 vs control.
[16] abbreviates: kynuramine 10 µM, MAO-B 0.01 mg/mL, 15 min.
Setting [17] is: 15 µM test compound (clorgyline 1 µM, selegiline 0.5 µM), kynuramine 10 µM, 15 min.

Like-named read-outs stand apart in the source and are kept apart here.

On to `COc1cc(CCC(C)=O)ccc1O` [zingerone], for which, in data set [1], the “inhibition of MAO-A activity in screening” value (“inhibition of MAO-A activity” for short) is on record as “only inhibited MAO-A” and the IC50 – broadly, the concentration at which inhibition is half-maximal – came to 16.3 ± 1.1 µM. Further, the inhibition (in general, the drop in the measured response relative to a control, in per cent) at 51 µM in data set [2] (51 µM (GI concentration expected from maximum single dose)) is < 10%.

Consider `Oc1ccnc2ccccc12` [4-hydroxyquinoline], for which, in data set [3], the “estimated most acidic pKa” value is on record as 4.3 and the “estimated most basic pKa” value is reported as 11.1.

As for `OC[C@H]1O[C@@H](Oc2cc(O)cc(/C=C/c3ccc(O)cc3)c2)[C@H](O)[C@@H](O)[C@@H]1O` [resveratrol 3-glucoside], the “MAO-B inhibition (Figure 6)” value in data set [2] is recorded as “failed to inhibit”.

On to `O=c1c(O)c(-c2ccc(O)cc2)oc2cc(O)cc(O)c12` [kaempferol], for which, in data set [4], the MAO-A inhibition entry is listed as “selective MAO-A inhibitor”.

`COc1cc(/C=C/C(=O)CC(=O)/C=C/c2ccc(O)c(OC)c2)ccc1O` [curcumin]: in data set [1], the “inhibition of MAO-A activity” value is listed as “significantly inhibited” and the “MAO-A Hill coefficient” value was found to be 2.0 ± 0.4. In data set [2] (setting [15]), the “inhibition of MAO-B activity in screening” value (“inhibition of MAO-B activity” for short) is on record as “significantly inhibited”. In addition, the “MAO-B Hill coefficient” value in data set [2] (setting [16]) was 1.7 ± 0.1. Moreover, the “MAO-A inhibition in mouse brain” value in [5] is listed as “inhibits”. In [6], the “MAO-B inhibition in mouse brain” value is given as “inhibits”.

As for `COc1cc(/C=C/c2ccc(O[C@@H]3O[C@H](CO)[C@@H](O)[C@H](O)[C@H]3O)cc2)cc(OC)c1` [pterostilbene 4'-glucoside], the “MAO-B inhibition (Figure 6)” value in data set [2] (setting [17]) was “failed to inhibit”.

Take `OC[C@H]1O[C@@H](Oc2ccc(/C=C/c3cc(O)cc(O)c3)cc2)[C@H](O)[C@@H](O)[C@@H]1O` [resveratrol 4'-glucoside]: the “MAO-A inhibition (Figure 6)” value in data set [1] is “inhibited MAO-A”. For the same compound, the “MAO-B inhibition (Figure 6)” value in data set [2] (setting [17]) is “failed to inhibit”.

With `COc1ccccc1O` [guaiacol], in data set [1], the “inhibition of MAO-A activity” value is listed as “significantly inhibited”, half-maximal inhibition (IC50) required 131 ± 6 µM and the “Selectivity Index” value came to 2.46. Further, the “inhibition of MAO-B activity” value in data set [2] (setting [15]) is “significantly inhibited”. The compound also registered an IC50 in data set [2] (setting [16]) of 322 ± 27 µM.

In the case of `O=c1c(O)c(-c2ccc(O)c(O)c2)oc2cc(O)cc(O)c12` [quercetin], the MAO-A inhibition result in data set [4] is recorded as “inhibitor”. Besides, the MAO-B inhibition entry in data set [7] is on record as “inhibitor”.

Consider `Cc1cc(O)c2c(c1)C(=O)c1cc(O)cc(O)c1C2=O` [emodin], for which, in data set [8], the inhibition constant Ki (in general, the equilibrium dissociation constant of an inhibitor or competing ligand from its target) was 15.1 µM and the “mode of inhibition, MAO-B” value is recorded as “mixed mode”.

As to `O=C(/C=C/C=C/c1ccc2c(c1)OCO2)N1CCCCC1` [piperine], in data set [9], the Ki was 35.8 µM and the “mode of inhibition, MAO-A” value was “mixed”. Moreover, in [8], the Ki was 79.9 µM and the “mode of inhibition, MAO-B” value is reported as “competitive”.

`COc1ccc(C(C)=O)c(O)c1` [paeonol]: in [9], the Ki is 51.1 µM and the “mode of inhibition, MAO-A” value is listed as “non-competitive”. Further, in data set [8], the inhibitory constant (Ki) was 38.2 µM and the “mode of inhibition, MAO-B” value is listed as “competitive”.

Regarding isoeugenol, in data set [1], the “inhibition of MAO-A activity” value is “significantly inhibited”, the “MAO-A Hill coefficient” value is listed as 1.2 ± 0.1 and the “Selectivity Index” value is 27.4. For the same compound, the “inhibition of MAO-B activity” value in [2] is given as “significantly inhibited”. In addition, the “MAO-B Hill coefficient” value in data set [2] (setting [16]) is 2.4 ± 0.3.

With `NCCC(=O)c1ccccc1N` [kynuramine], the “rate of 4-hydroxyquinoline formation, time-dependent study, MAO-A” value in [10] (kynuramine 10 µM, MAO-A 0.01 mg/mL, 10-60 min) worked out at 3.28 ± 0.09 nmol/mg/min. In addition, the “rate of 4-hydroxyquinoline formation, MAO concentration-dependent study, MAO-A” value in [10] (kynuramine 10 µM, MAO-A 0.003-0.03 mg/mL, 15 min) is given as 3.06 ± 0.03 nmol/mg/min. Also, in data set [10] (kynuramine 2-500 μM, 15 min), the “Vmax, MAO-A” value was determined as 10.2 ± 0.2 nmol/min/mg. The “rate of 4-hydroxyquinoline formation, time-dependent study, MAO-B” value in data set [11] (kynuramine 10 µM, MAO-B 0.01 mg/mL, 10-60 min) is listed as 2.70 ± 0.07 nmol/mg/min. For the same compound, the “rate of 4-hydroxyquinoline formation, MAO concentration-dependent study, MAO-B” value in data set [11] (kynuramine 10 µM, MAO-B 0.003-0.03 mg/mL, 15 min) was 3.66 ± 0.08 nmol/mg/min. Also, the “Vmax, MAO-B” value in [11] (kynuramine 2-500 μM, 15 min) worked out at 7.35 ± 0.69 nmol/min/mg. The Km (in general, the substrate concentration at which the rate is half of its maximum) in [4] was 44.1 µM; in data set [7], 90 µM; in data set [12], 42 µM; in [13], 26 µM. Besides, the “estimated most basic pKa” value in data set [3] is 8.4.

On to `N[C@@H]1C[C@H]1c1ccccc1` (racemic) [tranylcypromine], for which the “plateau inhibition, MAO-A” value in [14] stood at 48%.

As for `O=c1cc(-c2ccccc2)oc2cc(O)cc(O)c12` [chrysin], in data set [1], the “MAO-A inhibition (Figure 6)” value is listed as “inhibited both enzymes”. Further, the “MAO-B inhibition (Figure 6)” value in data set [2] (setting [17]) is reported as “inhibited both enzymes”.

(Values after article PMC6364133, “Selectivity of Dietary Phenolics for Inhibition of Human Monoamine Oxidases A and B” (BioMed Research International, 2019).)
